Source: PubChem BioAssay AID330 (DTP/NCI, 2004)
Several values for one entry are separate records, joined by “and”; a condition that tells them apart may be missing. Identical values can stand only once. Inconclusive results and toxic doses are left out. Rule for the calls: active = survival T/C of 150% or more; inactive = T/C below 125% in these data.

System: P388 leukemia ip, CD2F1 mice, survival T/C
Assay: NCI In Vivo Anticancer Drug Screen. Data for tumor model P388 Leukemia (intraperitoneal) in CD2F1 (CDF1) mice
Details: endpoint: median survival time, higher = longer survival
Summary of the method: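 Mice carrying the transplanted tumor received test compound or vehicle. Survival was recorded in each group, and the value is the treated-group measurement divided by that of the vehicle-treated control group.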

[1] = dose: 12.5 mg/kg/injection, schedule: Q01DX009 (ip), vehicle: saline
[2] = dose: 25.0 mg/kg/injection, schedule: Q01DX009 (ip), vehicle: saline
[3] = dose: 200.0 mg/kg/injection, schedule: Q01DX009 (ip), vehicle: saline
[4] = dose: 50.0 mg/kg/injection, schedule: Q01DX009 (ip), vehicle: saline
[5] = dose: 100.0 mg/kg/injection, schedule: Q01DX009 (ip), vehicle: saline
[6] = dose: 12.5 mg/kg/injection, schedule: Q01DX009 (ip), vehicle: saline with Tween-80
[7] = dose: 25.0 mg/kg/injection, schedule: Q01DX009 (ip), vehicle: saline with Tween-80
[8] = dose: 50.0 mg/kg/injection, schedule: Q01DX009 (ip), vehicle: saline with Tween-80
[9] = dose: 50.0 mg/kg/injection, schedule: Q01DX009 (ip), vehicle: Klucel (hydroxypropylcellulose) (HPC)
[10] = dose: 100.0 mg/kg/injection, schedule: Q01DX009 (ip), vehicle: Klucel (hydroxypropylcellulose) (HPC)
[11] = dose: 200.0 mg/kg/injection, schedule: Q01DX009 (ip), vehicle: Klucel (hydroxypropylcellulose) (HPC)
[12] = dose: 60.0 mg/kg/injection, schedule: Q01DX005 (ip), vehicle: saline with Tween-80
[13] = dose: 120.0 mg/kg/injection, schedule: Q01DX005 (ip), vehicle: saline with Tween-80
[14] = dose: 240.0 mg/kg/injection, schedule: Q01DX005 (ip), vehicle: saline with Tween-80
[15] = dose: 15.0 mg/kg/injection, schedule: Q01DX005 (ip), vehicle: saline with Tween-80
[16] = dose: 30.0 mg/kg/injection, schedule: Q01DX005 (ip), vehicle: saline with Tween-80
[17] = dose: 60.0 mg/kg/injection, schedule: Q01DX005 (ip), vehicle: Klucel (hydroxypropylcellulose) (HPC)
[18] = dose: 120.0 mg/kg/injection, schedule: Q01DX005 (ip), vehicle: Klucel (hydroxypropylcellulose) (HPC)
[19] = dose: 240.0 mg/kg/injection, schedule: Q01DX005 (ip), vehicle: Klucel (hydroxypropylcellulose) (HPC)

Measured: T/C

CC(Cl)CN1CC(C)OC1=O (stereo not given)
inactive: dose: 25.0 mg/kg/injection, schedule: Q01DX001 (ip), vehicle: saline 105 % of control | dose: 50.0 mg/kg/injection, schedule: Q01DX001 (ip), vehicle: saline 102 % of control | dose: 100.0 mg/kg/injection, schedule: Q01DX001 (ip), vehicle: saline 108 % of control | dose: 200.0 mg/kg/injection, schedule: Q01DX001 (ip), vehicle: saline 108 % of control

CC12CC=CCC1CCC1C2CCC2(C)C(O)C(O)CC12 (stereo not given)
inactive: dose: 50.0 mg/kg/injection, schedule: Q01DX005 (ip), vehicle: Klucel (hydroxypropylcellulose) (HPC) 101 % of control | dose: 100.0 mg/kg/injection, schedule: Q01DX005 (ip), vehicle: Klucel (hydroxypropylcellulose) (HPC) 95 % of control | dose: 200.0 mg/kg/injection, schedule: Q01DX005 (ip), vehicle: Klucel (hydroxypropylcellulose) (HPC) 93 % of control

O=C(O)c1cncc(C(=O)NCO)c1
inactive: [1] 101 % of control | [2] 101 % of control and 91 % of control | [3] 99 % of control and 103 % of control and 91 % of control

Cl[Si](Cl)(Cl)CCc1ccccn1
inactive: [2] 99 % of control | [4] 86 % of control | [5] 95 % of control | [3] 100 % of control

CC(=O)NC(=S)Nc1cccs1
inactive: [6] 99 % of control | [7] 103 % of control | [8] 95 % of control

CCOc1cc(/C=N\NC(=O)C(=O)N/N=C\c2ccc(O)c(OCC)c2)ccc1O
inactive: [9] 96 % of control | [10] 94 % of control | [11] 94 % of control

S=c1nc(Oc2ccc(-c3ccccc3)cc2)[nH]c(=S)[nH]1
inactive: [12] 87 % of control | [13] 92 % of control | [14] 97 % of control

COc1ccc(-n2c(=O)c(N=Nc3ccc(S(=O)(=O)N=C(N)N)cc3)c(O)n(-c3ccc(Cl)cc3)c2=S)cc1
inactive: dose: 100.0 mg/kg/injection, schedule: Q01DX002 (ip), vehicle: Klucel (hydroxypropylcellulose) (HPC) 99 % of control | dose: 200.0 mg/kg/injection, schedule: Q01DX002 (ip), vehicle: Klucel (hydroxypropylcellulose) (HPC) 107 % of control | dose: 400.0 mg/kg/injection, schedule: Q01DX002 (ip), vehicle: Klucel (hydroxypropylcellulose) (HPC) 106 % of control

O=C(Nc1ccc(Cl)cc1)Nc1nnc(COc2ccccc2)o1
inactive: [15] 90 % of control | [16] 88 % of control | [12] 89 % of control and 90 % of control | [13] 90 % of control | [14] 87 % of control

O=S(=O)(CCc1ccccc1)c1nc2ccccc2s1
inactive: [17] 99 % of control | [18] 100 % of control | [19] 101 % of control

C/C=C(\C)c1cc(OC)c(C)c(=O)o1
inactive: dose: 25.0 mg/kg/injection, schedule: Q04DX003 (ip), vehicle: Klucel (hydroxypropylcellulose) (HPC) 118 % of control | dose: 50.0 mg/kg/injection, schedule: Q04DX003 (ip), vehicle: Klucel (hydroxypropylcellulose) (HPC) 116 % of control | dose: 100.0 mg/kg/injection, schedule: Q04DX003 (ip), vehicle: Klucel (hydroxypropylcellulose) (HPC) 114 % of control

CCOC(=O)C(C[N+](=O)[O-])(NC(=O)c1ccccc1)C(=O)OCC
inactive: dose: 60.0 mg/kg/injection, schedule: Q01DX005 (ip), vehicle: saline 104 % of control | dose: 120.0 mg/kg/injection, schedule: Q01DX005 (ip), vehicle: saline 105 % of control | dose: 240.0 mg/kg/injection, schedule: Q01DX005 (ip), vehicle: saline 99 % of control

O=C(OC1CCc2ccccc2C1)c1ccc(N=Nc2ccccc2)cc1 (stereo not given)
inactive: [15] 100 % of control | [16] 97 % of control | [12] 91 % of control | [13] 86 % of control

CC(C)(CCC(C)(C)NC(=O)C12CC3CC(CC(C3)C1)C2)NC(=O)C12CC3CC(CC(C3)C1)C2
inactive: dose: 50.0 mg/kg/injection, schedule: Q01DX005 (ip), vehicle: saline with Tween-80 90 % of control | dose: 100.0 mg/kg/injection, schedule: Q01DX005 (ip), vehicle: saline with Tween-80 97 % of control | dose: 200.0 mg/kg/injection, schedule: Q01DX005 (ip), vehicle: saline with Tween-80 97 % of control

COC(=O)c1nn(-c2ccccc2)c2nc3ccccc3c-2c1C(=O)OC
inactive: dose: 100.0 mg/kg/injection, schedule: Q04DX002 (ip), vehicle: saline with Tween-80 108 % of control | dose: 200.0 mg/kg/injection, schedule: Q04DX002 (ip), vehicle: saline with Tween-80 108 % of control | dose: 400.0 mg/kg/injection, schedule: Q04DX002 (ip), vehicle: saline with Tween-80 97 % of control

COC(=O)/C(=C/Cl)NC(C)=O
inactive: dose: 12.5 mg/kg/injection, schedule: Q01DX001 (ip), vehicle: suspension in saline 91 % of control | dose: 25.0 mg/kg/injection, schedule: Q01DX001 (ip), vehicle: suspension in saline 99 % of control | dose: 50.0 mg/kg/injection, schedule: Q01DX001 (ip), vehicle: suspension in saline 92 % of control | dose: 200.0 mg/kg/injection, schedule: Q01DX001 (ip), vehicle: suspension in saline 98 % of control

CS/C(=C\c1ccc(C(=O)c2ccc(C)cc2)n1C)S(C)=O (stereo not given)
inactive: dose: 30.0 mg/kg/injection, schedule: Q01DX005 (ip), vehicle: Klucel (hydroxypropylcellulose) (HPC) 94 % of control | [17] 91 % of control and 94 % of control | [18] 92 % of control | [19] 88 % of control

CC(C)NC1(N(C)C)N=C(N(C)C)N=C(N(C)C)O1 (stereo not given)
inactive: dose: 50.0 mg/kg/injection, schedule: Q01DX005 (ip), vehicle: saline 101 % of control | dose: 100.0 mg/kg/injection, schedule: Q01DX005 (ip), vehicle: saline 101 % of control

Clc1nc2nc[nH]c2nc1Cl
inactive: dose: 11.0 mg/kg/injection, schedule: Q01DX009 (ip), vehicle: saline with Tween-80 100 % of control | dose: 16.5 mg/kg/injection, schedule: Q01DX009 (ip), vehicle: saline with Tween-80 104 % of control | [7] 100 % of control | dose: 25.0 mg/kg/injection, schedule: Q04DX003 (ip), vehicle: saline with Tween-80 91 % of control | dose: 37.5 mg/kg/injection, schedule: Q01DX009 (ip), vehicle: saline with Tween-80 100 % of control

O=C1C(=O)C2c3ccccc3C1c1ccccc12
inactive: dose: 50.0 mg/kg/injection, schedule: Q04DX002 (ip), vehicle: suspension in saline 101 % of control | dose: 100.0 mg/kg/injection, schedule: Q04DX002 (ip), vehicle: suspension in saline 106 % of control | dose: 200.0 mg/kg/injection, schedule: Q04DX002 (ip), vehicle: suspension in saline 112 % of control

O=C(Nc1nccs1)Nc1cc(F)ccc1F
inactive: dose: 25.0 mg/kg/injection, schedule: Q01DX009 (ip), vehicle: Klucel (hydroxypropylcellulose) (HPC) 90 % of control | [9] 90 % of control | [10] 90 % of control | [11] 90 % of control

Cc1ccc(NC(=S)SCc2ccc(Cl)c(Cl)c2)cc1Br
inactive: [4] 113 % of control | [5] 100 % of control | [3] 90 % of control | dose: 200.0 mg/kg/injection, schedule: Q01DX009 (ip), vehicle: suspension in saline 95 % of control

CCOP1(OCC)(OCC)OC(C(F)(F)F)(C(F)(F)F)C(C(F)(F)F)(C(F)(F)F)O1
inactive: dose: 6.25 mg/kg/injection, schedule: Q01DX009 (ip), vehicle: saline with Tween-80 100 % of control | [6] 105 % of control

O=C1OC(=O)[C@H]2[C@@H]1[C@H]1C=C[C@@H]2OC1=O
inactive: [6] 123 % of control | [1] 103 % of control | [7] 108 % of control | [2] 100 % of control | [8] 105 % of control | [4] 99 % of control and 92 % of control | dose: 100.0 mg/kg/injection, schedule: Q01DX009 (ip), vehicle: saline with Tween-80 101 % of control | [5] 100 % of control | [3] 98 % of control

OCCCCC12CCC(CCCCO)(CC1)CC2
inactive: dose: 100.0 mg/kg/injection, schedule: Q04DX002 (ip), vehicle: Klucel (hydroxypropylcellulose) (HPC) 91 % of control | dose: 400.0 mg/kg/injection, schedule: Q04DX002 (ip), vehicle: Klucel (hydroxypropylcellulose) (HPC) 86 % of control

COc1ccccc1C1=Nc2ccccc2N=C(c2ccccc2O)C1
inactive: [12] 107 % of control | [13] 100 % of control | [14] 90 % of control

COc1ccc(-n2nc3c(ccc4ccccc43)c2N)cc1
inactive: [12] 94 % of control | [13] 95 % of control | [14] 94 % of control
